In general, IC50 refers to the concentration at which inhibition is half-maximal.

The first experiment concerns the target T1, r5LO-wt (Homo sapiens, UniProt P09917).
T1 sequence (P09917 1-674): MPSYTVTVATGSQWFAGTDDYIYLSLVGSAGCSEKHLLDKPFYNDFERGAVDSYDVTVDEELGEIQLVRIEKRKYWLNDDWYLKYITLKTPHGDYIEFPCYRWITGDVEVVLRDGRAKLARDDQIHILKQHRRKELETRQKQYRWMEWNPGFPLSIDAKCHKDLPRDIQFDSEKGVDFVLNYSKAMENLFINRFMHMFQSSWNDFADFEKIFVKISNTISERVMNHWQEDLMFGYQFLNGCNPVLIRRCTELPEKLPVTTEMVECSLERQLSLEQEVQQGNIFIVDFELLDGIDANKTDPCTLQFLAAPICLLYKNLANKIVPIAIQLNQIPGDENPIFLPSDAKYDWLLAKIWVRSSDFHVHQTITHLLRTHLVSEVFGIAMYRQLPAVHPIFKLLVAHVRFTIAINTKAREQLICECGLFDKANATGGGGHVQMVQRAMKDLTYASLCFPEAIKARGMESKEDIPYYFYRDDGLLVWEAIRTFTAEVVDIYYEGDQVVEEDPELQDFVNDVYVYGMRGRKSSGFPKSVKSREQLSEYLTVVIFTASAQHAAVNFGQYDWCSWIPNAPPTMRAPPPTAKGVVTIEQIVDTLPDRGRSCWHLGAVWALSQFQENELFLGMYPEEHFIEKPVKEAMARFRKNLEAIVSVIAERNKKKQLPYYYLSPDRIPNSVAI
Kind of experiment: Recombinant 5-LO activity assay (5-HETE). The experiment is classed as biochemical. The note with it: 3 µg r5LO-wt, 15 min on ice, 1 mM CaCl2 + 20 µM AA; n.i. = no inhibition observed. Here is the method:
5-LO activity in intact cells was assayed by measuring LTB4 (leukotriene B4) and 5-HETE (5-hydroxyeicosatetraenoic acid) levels in the PMNL supernatants. Since PMNL preparations (purity >95%) contain eosinophils expressing 15-LO-1 as well as platelets, we also analyzed the effects of NFA on the concomitant formation of […] and 12-(S)-HETE. […] Recombinant 5-LO enzyme activity was assessed by the determination of 5-HETE levels representing a direct product assay. In the cell-based LO activity assays, 5 × 10^6 cells per ml PBS/glucose were transferred to 5 ml glass tubes containing 1 mM CaCl2 and stored on ice. […] Subsequently, the cells were stimulated with calcium ionophore A23187 (2.5 µM) and arachidonic acid (AA, 20 µM) for an additional 10 min at 37°C. Recombinant 5-LO activity assays were carried out using 3 µg r5LO-wt enzyme. The enzyme was diluted in PBS/EDTA/ATP, transferred into 5-ml glass tubes, and stored on ice. […] The samples were then pre-heated at 37°C in a water bath and subsequently stimulated with 1 mM CaCl2 and 20 µM AA for 10 min at 37°C. The reaction was stopped by placing the glass tubes on ice. The supernatants were transferred to 1.5 ml reaction tubes and stored at −80°C before LC-MS (liquid chromatography and mass spectrometry) analysis of LTB4 and HETEs as described in 2.6 at the Institute of Pharmacology, Goethe University, University Hospital, Germany.
The lipid mediators LTB4, hydroxyeicosatetraenoic acids, 5(S)-HETE, 12(S)-HETE, 15(S)-HETE and 20-HETE were analyzed using liquid chromatography tandem-mass spectroscopy (LC-MS/MS). The LC-MS/MS system consisted of a 5500 QTrap mass spectrometer (Sciex, Darmstadt, Germany), operating in negative ESI mode, an Agilent 1200 HPLC system (Agilent, Waldbronn, Germany) and an HTC Pal autosampler (Chromtech, Idstein, Germany).
Suppl. Figure 3: Inhibition of 5-LO derived 5-HETE production by NFA with (A) different carbon chain lengths and (B) different Michael acceptor positions using the r5LO-wt assay. r5LO-wt (3 µg) in PBS/EDTA/ATP buffer was preincubated with the compounds or the vehicle control DMSO (0.1%) for 15 min at 4°C, preheated at 37°C for 30 sec, and subsequently stimulated with 1 mM CaCl 2 and 20 µM AA for another 10 min at 37°C.
5-HETE activity was analyzed by LC-MS. Data are presented as the percent of the control mean ± SD, n = 3–6. AA , arachidonic acid; ATP, adenosine triphosphate; DMSO, dimethyl sulfoxide; EDTA, ethylenediaminetetraacetate; HETE, hydroxyeicosatetraenoic acid; NFA, nitro-fatty acids; PBS, phosphate-buffered saline . […]
As for `CCC=C(CCCCCCCC(=O)O)[N+](=O)[O-]` [12.9.9, 9-nitro-dodec-9-enoic acid], the half-inhibitory concentration (IC50) amounted to 75.5 ± 8.1 µM.
The same measure, in the same setting: in the case of `CCCCC=C(CCCCCCCC(=O)O)[N+](=O)[O-]` [14.9.9, 9-nitro-tetradec-9-enoic acid] it was 17.9 ± 1.6 µM; in that of `CCCCCCC=C(CCCCCCCC(=O)O)[N+](=O)[O-]` [16.9.9, 9-nitro-hexadec-9-enoic acid], 3.3 ± 1.2 µM; in that of `CCCCCCCCCCCCCC=C(CCC(=O)O)[N+](=O)[O-]` [18.4.4, 4-nitro-octadec-4-enoic acid], 0.4 ± 1.2 µM.
On the same count and under the same terms, as for `CCCCCCCCCCCCC=C(CCCC(=O)O)[N+](=O)[O-]` [18.5.5, 5-nitro-octadec-5-enoic acid], the figure is 0.4 ± 1.1 µM; as for `CCCCCCCCCCCC=C(CCCCC(=O)O)[N+](=O)[O-]` [18.6.6, 6-nitro-octadec-6-enoic acid], 1 ± 1.2 µM.
Still for that read-out and setting: as for `CCCCCCCCCCCC(=CCCCCC(=O)O)[N+](=O)[O-]` [18.6.7, 7-nitro-octadec-6-enoic acid], the figure is 1.1 ± 1.2 µM.
On to `CCCCCCCCCCC=C(CCCCCC(=O)O)[N+](=O)[O-]` [18.7.7, 7-nitro-octadec-7-enoic acid], for which the IC50 came to 0.6 ± 1.3 µM.
On the same count and under the same terms, in the case of `CCCCCCCCCC=C(CCCCCCC(=O)O)[N+](=O)[O-]` [18.8.8, 8-nitro-octadec-8-enoic acid] it was 2.2 ± 1.2 µM; in that of `CCCCCCCCCC(=CCCCCCCC(=O)O)[N+](=O)[O-]` [18.8.9, 9-nitro-octadec-8-enoic acid], 1.9 ± 1.2 µM; in that of `CCCCCCCCC=C(CCCCCCCC(=O)O)[N+](=O)[O-]` [18.9.9, 9-nitro-octadec-9-enoic acid], 1.1 ± 1.2 µM.
For the compound `CCCCCCCCC(=CCCCCCCCC(=O)O)[N+](=O)[O-]` [18.9.10, 10-nitro-octadec-9-enoic acid], the half-maximal inhibitory concentration (IC50) worked out at 1.6 ± 1.3 µM.
In the case of `CCCCCCCC=C(CCCCCCCCC(=O)O)[N+](=O)[O-]` [18.10.10, 10-nitro-octadec-10-enoic acid], the concentration for half-maximal inhibition (IC50) worked out at 1.6 ± 1.3 µM.
On the same count and under the same terms, as for `CCCCCCC=C(CCCCCCCCCC(=O)O)[N+](=O)[O-]` [18.11.11, 11-nitro-octadec-11-enoic acid], the figure is 0.8 ± 1.2 µM; as for `CCCCCCCCCCC=C(CCCCCCCC(=O)O)[N+](=O)[O-]` [20.9.9, 9-nitro-eicos-9-enoic acid], 0.9 ± 1.3 µM.
As to `CCCCCCCC/C=C\CCCCCCCC(=O)O` [OA, oleic acid, reference compound], the “r5LO-wt 5-HETE IC50” value was “n.i”.

The experiment is the same for the next values; noted with them: at concentrations of >10 µM.
In the case of `CCCCCCCC/C=C\CCCCCCCC(=O)O` [OA, oleic acid, reference compound], the “effect on product formation by recombinant 5-LO” value is on record as “slight inhibitory effect”.

The values above are taken from PMC8637440, “Structural Modifications Yield Novel Insights Into the Intriguing Pharmacodynamic Potential of Anti-inflammatory Nitro-Fatty Acids” (Frontiers in Pharmacology, 2021).
